Source: US12570671B2 (BRISTOL-MYERS SQUIBB COMPANY, priority 2020, dated 2026)

Key:
[1] = target: Helios (Homo sapiens, UniProt Q96SW2+Q9UKS7); test: Helios Cellular Degradation Assay (Helios readout); format: cell-based; design: endogenous in cells; host or cells: Jurkat; conditions: Jurkat cells, 72 h incubation, Helios-PE antibody staining, flow cytometry; read-out: Helios Jurkat IC50
Procedure: (§1) Jurkat cells were plated at 80,000 cells/well in 40 μL RPMI+10% FBS in a 384 well cell culture plate prior to using acoustic dispensing technology for adding compound of interest. Cell cultures were incubated for 72 h at 37° C. and 5% C02. In order to facilitate analysis, cell cultures were spun down at 200 rpm for 5 min and the supernatant was discarded. After shaking the plate to dislodge the cell pellet, cells were resuspended in 50 μL of Fixation Buffer (eBioScience FoxP3 buffer set 00-5523-00) for 60 min at room temperature. After centrifuging and discarding the supernatant, cells were permeabilized with 50 μL of Permeabilization buffer (eBioScience FoxP3 buffer set 00-5523-00) for 10 min at room temperature. Following permeabilization, cells were spun down and the supernatant was replaced with 20 μL fluorescently labelled antibodies against Helios, Ikaros and Aiolos or corresponding Isotype controls in 1× Permeabilization buffer (Ikaros-Alexa488 [Biolegend, Cat #368408, 1:50], Helios-PE [CST, Cat #29360, 1:50], Aiolos-Alexa647 [Biolegend, Cat #371106Biolegend, 1:25]) and staining reactions were incubated for 1 h at room temperature; protected from light. Subsequently, 30 μL of 1× Permeabilization buffer was added prior to centrifuging the cells and discarding the supernatant. Stained cells were resuspended in 25 μL of flow cytometry staining buffer (PBS+0.2% BSA) and analyzed using an Intellicyt Ique Plus flow cytometer.

[2] = target: Ikaros (Homo sapiens, UniProt Q13422+Q96SW2); test: Helios Cellular Degradation Assay (Ikaros readout); format: cell-based; design: endogenous in cells; host or cells: Jurkat; conditions: Jurkat cells, 72 h incubation, Ikaros-Alexa488 antibody staining, flow cytometry; read-out: Ikaros Jurkat IC50
Procedure: as §1

Ikaros, sequence (Q13422 whole entry): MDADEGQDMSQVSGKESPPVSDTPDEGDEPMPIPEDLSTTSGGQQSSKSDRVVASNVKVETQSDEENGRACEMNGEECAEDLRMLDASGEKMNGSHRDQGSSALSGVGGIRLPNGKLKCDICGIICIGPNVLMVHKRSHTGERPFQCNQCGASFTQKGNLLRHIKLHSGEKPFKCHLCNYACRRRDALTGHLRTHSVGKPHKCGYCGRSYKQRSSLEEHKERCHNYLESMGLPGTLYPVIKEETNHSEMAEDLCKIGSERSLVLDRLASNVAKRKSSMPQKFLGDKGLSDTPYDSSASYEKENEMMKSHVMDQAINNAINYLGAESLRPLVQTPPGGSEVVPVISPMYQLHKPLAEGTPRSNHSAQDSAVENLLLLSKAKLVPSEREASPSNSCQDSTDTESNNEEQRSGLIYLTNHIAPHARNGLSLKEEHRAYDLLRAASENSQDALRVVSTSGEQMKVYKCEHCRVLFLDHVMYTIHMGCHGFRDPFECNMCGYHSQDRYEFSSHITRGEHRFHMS
Ikaros, sequence (Q96SW2 whole entry): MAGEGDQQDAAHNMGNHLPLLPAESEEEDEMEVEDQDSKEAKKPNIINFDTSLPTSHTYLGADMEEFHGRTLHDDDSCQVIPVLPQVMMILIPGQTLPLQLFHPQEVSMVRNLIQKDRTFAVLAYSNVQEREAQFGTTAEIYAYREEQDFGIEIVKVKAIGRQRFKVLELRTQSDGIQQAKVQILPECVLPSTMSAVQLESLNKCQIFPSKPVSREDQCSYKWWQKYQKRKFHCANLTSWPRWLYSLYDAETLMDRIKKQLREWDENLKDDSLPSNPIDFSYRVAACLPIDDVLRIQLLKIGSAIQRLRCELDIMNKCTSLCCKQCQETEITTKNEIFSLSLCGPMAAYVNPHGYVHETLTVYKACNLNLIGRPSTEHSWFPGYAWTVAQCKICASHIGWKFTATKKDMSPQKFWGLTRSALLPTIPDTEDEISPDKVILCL
Ikaros, sequence (Q16531 whole entry partner): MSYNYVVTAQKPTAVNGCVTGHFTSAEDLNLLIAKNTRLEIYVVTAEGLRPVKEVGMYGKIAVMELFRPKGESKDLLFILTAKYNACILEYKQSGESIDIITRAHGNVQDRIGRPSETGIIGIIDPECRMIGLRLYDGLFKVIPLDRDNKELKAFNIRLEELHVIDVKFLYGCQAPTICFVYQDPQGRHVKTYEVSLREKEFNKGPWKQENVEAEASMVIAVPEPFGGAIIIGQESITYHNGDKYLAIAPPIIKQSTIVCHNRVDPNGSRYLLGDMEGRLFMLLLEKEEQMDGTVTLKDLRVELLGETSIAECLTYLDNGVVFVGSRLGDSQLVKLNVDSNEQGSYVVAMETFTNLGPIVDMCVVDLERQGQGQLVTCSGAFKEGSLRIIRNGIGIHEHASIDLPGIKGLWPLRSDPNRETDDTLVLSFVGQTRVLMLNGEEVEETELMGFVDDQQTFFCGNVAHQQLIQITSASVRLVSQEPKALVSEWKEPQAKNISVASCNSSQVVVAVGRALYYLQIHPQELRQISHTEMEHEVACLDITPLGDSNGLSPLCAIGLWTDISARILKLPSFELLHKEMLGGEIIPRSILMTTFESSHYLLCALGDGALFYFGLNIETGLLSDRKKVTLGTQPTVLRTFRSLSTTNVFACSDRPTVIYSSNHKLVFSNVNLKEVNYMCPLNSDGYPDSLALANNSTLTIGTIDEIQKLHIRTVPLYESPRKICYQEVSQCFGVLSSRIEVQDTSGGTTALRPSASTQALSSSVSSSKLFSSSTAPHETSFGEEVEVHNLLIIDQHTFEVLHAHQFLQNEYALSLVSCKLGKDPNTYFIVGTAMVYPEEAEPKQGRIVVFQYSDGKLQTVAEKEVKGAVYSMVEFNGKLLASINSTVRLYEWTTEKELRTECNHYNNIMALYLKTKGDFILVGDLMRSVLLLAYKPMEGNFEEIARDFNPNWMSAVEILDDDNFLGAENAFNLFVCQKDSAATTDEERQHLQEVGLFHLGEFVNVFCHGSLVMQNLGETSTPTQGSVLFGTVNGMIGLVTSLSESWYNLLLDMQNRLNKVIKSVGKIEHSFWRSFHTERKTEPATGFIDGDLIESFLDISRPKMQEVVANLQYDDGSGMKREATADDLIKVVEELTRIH
Helios, sequence (Q9UKS7 whole entry): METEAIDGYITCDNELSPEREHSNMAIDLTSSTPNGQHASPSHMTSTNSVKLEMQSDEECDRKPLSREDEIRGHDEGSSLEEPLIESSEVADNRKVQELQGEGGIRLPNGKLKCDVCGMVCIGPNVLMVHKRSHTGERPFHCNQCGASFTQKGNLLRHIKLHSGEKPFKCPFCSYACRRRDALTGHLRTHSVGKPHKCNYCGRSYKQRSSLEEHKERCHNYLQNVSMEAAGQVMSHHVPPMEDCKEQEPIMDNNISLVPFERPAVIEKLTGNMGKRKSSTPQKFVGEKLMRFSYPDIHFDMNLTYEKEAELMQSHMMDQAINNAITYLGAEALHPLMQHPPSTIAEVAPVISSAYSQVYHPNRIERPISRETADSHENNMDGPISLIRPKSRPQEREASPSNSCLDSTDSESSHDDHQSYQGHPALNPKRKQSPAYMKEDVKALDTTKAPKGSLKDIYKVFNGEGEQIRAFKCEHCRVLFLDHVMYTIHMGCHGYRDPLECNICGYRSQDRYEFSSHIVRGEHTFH
Helios, sequence (Q96SW2 whole entry): as the sequence (Q96SW2 whole entry) above
Helios, sequence (Q16531 whole entry partner): as the sequence (Q16531 whole entry partner) above

DC50 [1] | DC50 [2] | Compound
32 nM | 34 nM | O=C1CCC(N2Cc3cc(-c4cc(-c5ccccc5)ccn4)ccc3C2=O)C(=O)N1 (stereo not shown) [Example 74, 3-(1-oxo-5-(4-phenylpyridin-2-yl)isoindolin-2-yl)piperidine-2,6-dione]
1200 nM | > 20000 nM | O=C1CCC(N2Cc3cc(-c4nccc(-c5ccccn5)n4)ccc3C2=O)C(=O)N1 (stereo not shown) [Example 75, 3-(1-oxo-5-(4-(pyridin-2-yl)pyrimidin-2-yl)isoindolin-2-yl)piperidine-2,6-dione]
> 20000 nM | > 20000 nM | N#Cc1ccnnc1-c1ccc2c(c1)CN(C1CCC(=O)NC1=O)C2=O (stereo not shown) [Example 76, 3-(2-(2,6-dioxopiperidin-3-yl)-1-oxoisoindolin-5-yl)pyridazine-4-carbonitrile]
> 20000 nM | > 20000 nM | N#Cc1ccc(-c2ccc3c(c2)CN(C2CCC(=O)NC2=O)C3=O)nn1 (stereo not shown) [Example 77, 6-[2-(2,6-Dioxopiperidin-3-yl)-1-oxo-2,3-dihydro-1H-isoindol-5-yl]pyridazine-3-carbonitrile]
2800 nM | > 20000 nM | NC(=O)c1ccc(-c2ccc3c(c2)CN(C2CCC(=O)NC2=O)C3=O)nn1 (stereo not shown) [Example 78, 6-[2-(2,6-dioxopiperidin-3-yl)-1-oxo-2,3-dihydro-1H-isoindol-5-yl]pyridazine-3-carboxamide]
> 20000 nM | > 20000 nM | Nc1ccc([N+](=O)[O-])c(-c2ccc3c(c2)CN(C2CCC(=O)NC2=O)C3=O)n1 (stereo not shown) [Example 79, 3-[5-(6-Amino-3-nitropyridin-2-yl)-1-oxo-2,3-dihydro-1H-isoindol-2-yl]piperidine-2,6-dione]
320 nM | > 20000 nM | N#Cc1cnc(-c2ccc3c(c2)CN(C2CCC(=O)NC2=O)C3=O)nc1N (stereo not shown) [Example 80, 4-Amino-2-[2-(2,6-dioxopiperidin-3-yl)-1-oxo-2,3-dihydro-1H-isoindol-5-yl]pyrimidine-5-carbonitrile]
3900 nM | > 20000 nM | NC(=O)c1cnc(-c2ccc3c(c2)CN(C2CCC(=O)NC2=O)C3=O)nc1N (stereo not shown) [Example 81, 4-amino-2-[2-(2,6-dioxopiperidin-3-yl)-1-oxo-2,3-dihydro-1H-isoindol-5-yl]pyrimidine-5-carboxamide]
4 nM | ≥ 20000 nM | Nc1nc(-c2ccc3c(c2)CN([C@H]2CCC(=O)NC2=O)C3=O)cc2ccccc12 [Example 82, (3S)-3-[5-(1-aminoisoquinolin-3-yl)-1-oxo-2,3-dihydro-1H-isoindol-2-yl]piperidine-2,6-dione]
30 nM | ≥ 20000 nM | Nc1nc(-c2ccc3c(c2)CN([C@@H]2CCC(=O)NC2=O)C3=O)cc2ccccc12 [Example 83, (3R)-3-[5-(1-aminoisoquinolin-3-yl)-1-oxo-2,3-dihydro-1H-isoindol-2-yl]piperidine-2,6-dione]
3 nM | ≥ 20000 nM | CCOc1c(-c2ccc3c(c2)CN([C@H]2CCC(=O)NC2=O)C3=O)nc(N)c2ccccc12 [Example 84, (3S)-3-[5-(1-amino-4-ethoxyisoquinolin-3-yl)-1-oxo-2,3-dihydro-1H-isoindol-2-yl]piperidine-2,6-dione]
10 nM | 1820 nM | CCOc1c(-c2ccc3c(c2)CN(C2CCC(=O)NC2=O)C3=O)ncc2ccccc12 (stereo not shown) [Example 85, 3-(5-(4-ethoxyisoquinolin-3-yl)-1-oxoisoindolin-2-yl)piperidine-2,6-dione]
50 nM | 190 nM | CCOc1c(-c2ccc3c(c2)CN(C2CCC(=O)NC2=O)C3=O)nc(Cl)c2ccccc12 (stereo not shown) [Example 86, 3-(5-(1-chloro-4-ethoxyisoquinolin-3-yl)-1-oxoisoindolin-2-yl)piperidine-2,6-dione]
100 nM | ≥ 20000 nM | O=C1CCC(N2Cc3cc(-c4cc5c(cn4)OCCN5)ccc3C2=O)C(=O)N1 (stereo not shown) [Example 87, 3-(5-(2,3-dihydro-1H-pyrido[3,4-b][1,4]oxazin-7-yl)-1-oxoisoindolin-2-yl)piperidine-2,6-dione]
20 nM | ≥ 20000 nM | Cc1nc(-c2ccc3c(c2)CN(C2CCC(=O)NC2=O)C3=O)cc2ccccc12 (stereo not shown) [Example 88, 3-(5-(1-methylisoquinolin-3-yl)-1-oxoisoindolin-2-yl)piperidine-2,6-dione]
2200 nM | ≥ 20000 nM | O=C1CCC(N2Cc3cc(-c4cc5ccccc5c(C5CC5)n4)ccc3C2=O)C(=O)N1 (stereo not shown) [Example 89, 3-(5-(1-cyclopropylisoquinolin-3-yl)-1-oxoisoindolin-2-yl)piperidine-2,6-dione]
20 nM | 410 nM | N#Cc1cnc(-c2ccc3c(c2)CN(C2CCC(=O)NC2=O)C3=O)c2ccccc12 (stereo not shown) [Example 90, -(2-(2,6-dioxopiperidin-3-yl)-1-oxoisoindolin-5-yl)isoquinoline-4-carbonitrile]
210 nM | ≥ 20000 nM | O=C1CCC(N2Cc3cc(-c4ncnc5ccccc45)ccc3C2=O)C(=O)N1 (stereo not shown) [Example 91, 3-(1-oxo-5-(quinazolin-4-yl)isoindolin-2-yl)piperidine-2,6-dione]
1500 nM | ≥ 20000 nM | CN1CCc2nc(-c3ccc4c(c3)CN(C3CCC(=O)NC3=O)C4=O)ccc2C1=O (stereo not shown) [Example 92, 3-(5-(6-methyl-5-oxo-5,6,7,8-tetrahydro-1,6-naphthyridin-2-yl)-1-oxoisoindolin-2-yl)piperidine-2,6-dione]

More lines, now with the values behind:

Compound | DC50 [1] | DC50 [2]
O=C1CCC(N2Cc3cc(-c4ncc(Br)c5cc[nH]c45)ccc3C2=O)C(=O)N1 (stereo not shown) [Example 56, 3-(5-{4-bromo-1H-pyrrolo[2,3-c]pyridin-7-yl}-1-oxo-2,3-dihydro-1H-isoindol-2-yl) piperidine-2,6-dione] | 27 nM | 49 nM
Nc1nc(-c2ccc3c(c2)CN(C2CCC(=O)NC2=O)C3=O)cc2ncccc12 (stereo not shown) [Example 57, 3-[5-(5-amino-1,6-naphthyridin-7-yl)-1-oxo-2,3-dihydro-1H-isoindol-2-yl]piperidine-2,6-dione] | 7 nM | > 20000 nM
COc1ccc2c(-c3ccc4c(c3)CN(C3CCC(=O)NC3=O)C4=O)nc(OC)cc2c1 (stereo not shown) [Example 58, 3-[5-(3,6-dimethoxyisoquinolin-1-yl)-1-oxo-2,3-dihydro-1H-isoindol-2-yl]piperidine-2,6-dione] | 1 nM | 9 nM
O=Cc1cc2c(-c3ccc4c(c3)CN(C3CCC(=O)NC3=O)C4=O)nccc2s1 (stereo not shown) [Example 60, 4-[2-(2,6-dioxopiperidin-3-yl)-1-oxo-2,3-dihydro-1H-isoindol-5-yl]thieno[3,2-c]pyridine-2-carbaldehyde] | 15 nM | 160 nM
Cc1cc(=O)c2ccc(-c3ccc4c(c3)CN(C3CCC(=O)NC3=O)C4=O)nc2o1 (stereo not shown) [Example 62, 3-(5-{2-methyl-4-oxo-4H-pyrano[2,3-b]pyridin-7-yl}-1-oxo-2,3-dihydro-1H-isoindol-2-yl)piperidine-2,6-dione] | > 20000 nM | > 20000 nM
O=C1CCC(N2Cc3cc(-c4nccc5cccnc45)ccc3C2=O)C(=O)N1 (stereo not shown) [Example 64, 3-[5-(1,7-naphthyridin-8-yl)-1-oxo-2,3-dihydro-1H-isoindol-2-yl]piperidine-2,6-dione] | > 20000 nM | > 20000 nM
Nc1cn2nc(-c3ccc4c(c3)CN(C3CCC(=O)NC3=O)C4=O)ccc2n1 (stereo not shown) [Example 65, 3-(5-{2-aminoimidazo[1,2-b]pyridazin-6-yl}-1-oxo-2,3-dihydro-1H-isoindol-2-yl)piperidine-2,6-dione] | > 20000 nM | > 20000 nM
O=C1CCC(N2Cc3cc(-c4nccc5ccccc45)ccc3C2=O)C(=O)N1 (stereo not shown) [Example 66, 3-[5-(isoquinolin-1-yl)-1-oxo-2,3-dihydro-1H-isoindol-2-yl]piperidine-2,6-dione] | 6 nM | 25 nM
O=C1CCC(N2Cc3cc(-c4cc5ccccc5cn4)ccc3C2=O)C(=O)N1 (stereo not shown) [Example 67, 3-[5-(isoquinolin-3-yl)-1-oxo-2,3-dihydro-1H-isoindol-2-yl]piperidine-2,6-dione] | 42 nM | 3000 nM
Nc1nccc(-c2ccc3c(c2)CN(C2CCC(=O)NC2=O)C3=O)n1 (stereo not shown) [Example 70, 3-(5-(2-aminopyrimidin-4-yl)-1-oxoisoindolin-2-yl)piperidine-2,6-dione] | 480 nM | > 20000 nM
O=C1CCC(N2Cc3cc(-c4nccc(-c5ccccc5)n4)ccc3C2=O)C(=O)N1 (stereo not shown) [Example 71, 3-(1-oxo-5-(4-phenylpyrimidin-2-yl)isoindolin-2-yl)piperidine-2,6-dione] | 75 nM | > 20000 nM
O=C1CCC(N2Cc3cc(-c4nccc(-c5cccnc5)n4)ccc3C2=O)C(=O)N1 (stereo not shown) [Example 72, 3-(1-oxo-5-(4-(pyridin-3-yl)pyrimidin-2-yl)isoindolin-2-yl)piperidine-2,6-dione] | > 20000 nM | > 20000 nM
Nc1nc(-c2ccccc2)nc(-c2ccc3c(c2)CN(C2CCC(=O)NC2=O)C3=O)n1 (stereo not shown) [Example 73, 3-(5-(4-amino-6-phenyl-1,3,5-triazin-2-yl)-1-oxoisoindolin-2-yl)piperidine-2,6-dione] | 67 nM | 450 nM
